Data published in publication PMC10223019, “Preclinical Evaluation of a PSMA-Targeting Homodimer with an Optimized Linker for Imaging of Prostate Cancer” (Molecules, 2023).

How the values were obtained:
[1] = system: PSMA expressing LS174T cells; assay: Internalization and cell uptake assay; type: cell-based, human; details: 2 h 37 °C
Description: LS174T human colon carcinoma cells transfected with human PSMA were obtained from Dr. Sandra Heskamp (Radboud UMC, Nijmegen). Cells were cultured in RPMI-1640 media supplemented with 2 mM glutamine, 10% fetal bovine serum (FBS) and 0.3 mg/mL G418 (Geneticin, Sigma Aldrich, St. Louis, MO, USA).
Cells were seeded (1.2 × 10^6 cells/well) and cultured to confluency for 24 h prior to experiments. We prepared 10^−9 M solutions of [^111In]In-PSMA-617, [^111In]In-22, and [^111In]In-30 in internalization media (RPMI, 20 mM HEPES, 1% BSA, pH 7.4). The media were removed from each well, and they were rinsed twice with PBS at rt. 2 mL of the radioactive compound was then added to each well and incubated at 37 °C for 2 h. For the internalization assay, the media containing radioactive compound were removed, and each well was washed twice with cold PBS. A total of 1 mL of Glycine buffer (50 mM glycine, 100 mM NaCl, pH 2.8) was added immediately and incubated for 10 min at rt. The glycine wash was then collected into counting tubes (membrane-bound fraction). An extra wash was performed and collected in the same tubes. A total of 1 mL of NaOH (1 M) was then added to each tube and left for 15 min at rt. The lysate (internalized fraction) was then collected in separate counting tubes, together with one extra NaOH wash. Data were normalized to 1,000,000 cells and percentage added dose.

[2] = system: BALB/c nude mice bearing LS174T PSMA-positive tumor xenografts; assay: Ex vivo biodistribution studies; type: in vivo
Description: Animal experiments were performed in 8–10 weeks old male BALB/c nude mice (Janvier Labs, Le Genest-Saint-Isle, France). Animals were housed in individually ventilated cages (Blue line IVC, 4 mice per cage) under nonsterile standard conditions with cage enrichment present and free access to chlorophyll-free animal chow (Sniff GmbH, Soest, Germany) and water and acclimated for 1 week before experiments. Mice were subcutaneously inoculated with 4.0 × 10^6 LS174T cells in the right flank, diluted in 100 μL of cell suspension. Seven days after tumor cell inoculation, when xenografts were approximately 0.2–0.3 cm^3, the tracers were injected intravenously via the tail vein. All experiments were approved by the institutional Animal Welfare Committee and were conducted in accordance with the guidelines of the Revised Dutch Act on Animal Experimentation (WOD).
Mice were intravenously injected with ~1 nmol of either [^111In]In-PSMA-617, [^111In]In-22 or [^111In]In-30 with molar activity of 5 MBq/nmol for ex vivo biodistribution studies. Mice (n = 4/timepoint) were euthanized by cervical dislocation at 1, 4, and 24 h p.i. A block group was included, and mice were euthanized at 4 h p.i. Organs were collected in tubes and counted in the gamma counter, where the calibration factor was determined by measuring different known activities of indium-111.

[3] = Stability in phosphate-buffered saline (PBS), radio-HPLC; type: physicochemical; details: 24 h post-incubation, 37 °C, indium-111 labeled, intact fraction
Description: [^111In]In-22 or [^111In]In-30 (~10 MBq, 20 µL) was mixed with 80 μL of PBS (0.01 M, pH 7.4) and incubated at 37 °C for up to 24 h. A sample of the PBS solution was loaded directly onto the radio-HPLC at 1, 4, and 24 h post-incubation.

[4] = Stability in mouse serum, radio-HPLC; type: in vitro ADME
Description: [^111In]In-22 or [^111In]In-30 (~35 MBq, 70 µL) was mixed with 330 μL of mouse serum and incubated at 37 °C for up to 24 h. After 1, 4, and 24 h incubation, 50 μL of the mouse serum solution was added to a separate vial containing 50 µL of acetonitrile. The sample was centrifuged at 5000× g for 20 min. The supernatant was analyzed by radio-HPLC.

[5] = LogD7.4 by shake-flask method (PBS/n-octanol); type: physicochemical; details: LogD7.4, PBS pH 7.4/n-octanol, indium-111 labeled compound
Description: The distribution coefficients (LogD7.4 values) were determined by a shake-flask method, in which 2 μL (~0.5 MBq) of the labeling solution ([^111In]In-22 or [^111In]In-30) were added to an Eppendorf tube containing 1 mL of PBS (0.01 M, pH 7.4)/n-octanol (v/v, 1:1). After vigorous vortexing, the solution was centrifuged at 2500× g for 15 min for phase separation. Samples (3 × 10 μL) of the two phases were taken out and measured in a gamma counter. LogD7.4 values were calculated by using the following equation: LogD7.4 = log [(counts in octanol phase)/(counts in aqueous phase)] and the experiment was performed in triplicate.

[6] = 4 h p.i. block group (excess unlabeled PSMA ligand)

Compound: CC(C)C[C@H](NC(=O)[C@H](Cc1ccccc1)NC(=O)[C@H](CC(=O)O)NC(=O)CCC(C(=O)O)N1CCN(CC(=O)[O-])CCN(CC(=O)[O-])CCN(CC(=O)[O-])CC1)[C@@H](O)CC(=O)NCCCCCC(=O)NCCCC[C@H](NC(=O)N[C@@H](CCC(=O)O)C(=O)O)C(=O)O.[111In+3] (stereo partly drawn) [[^111In]In-22]
- Internalized fraction ([1]; 10^-9 M, NaOH lysate): 0.53 ± 0.08 % AD
- Membrane-bound uptake ([1]; 10^-9 M, glycine wash): 1.02 ± 0.15 % AD
- Total uptake ([1]; 10^-9 M, normalized to 1,000,000 cells): 1.55 ± 0.21 % AD
- Internalized fraction as share of total uptake (internalization) [1]: 34.2%
- Membrane-bound uptake as share of total uptake [1]: 66%
- Membrane-bound uptake as share of total uptake ([1]; listed as [111In]In-22): 65.8%
- Tumor-to-muscle (T/M) ratio ([2]; 1 h p.i.): 31
- Blood uptake ([2]; 1 h p.i., i.v. ~1 nmol): 0.14 ± 0.01 % ID/g
- Bone uptake ([2]; 1 h p.i., i.v. ~1 nmol): 0.20 ± 0.01 % ID/g
- Heart uptake ([2]; 1 h p.i., i.v. ~1 nmol): 0.13 ± 0.05 % ID/g
- Intestines uptake ([2]; 1 h p.i., i.v. ~1 nmol): 0.26 ± 0.17 % ID/g
- Kidney uptake ([2]; 1 h p.i., i.v. ~1 nmol): 22.56 ± 2.59 % ID/g
- Liver uptake ([2]; 1 h p.i., i.v. ~1 nmol): 0.17 ± 0.03 % ID/g
- Lung uptake ([2]; 1 h p.i., i.v. ~1 nmol): 0.45 ± 0.07 % ID/g
- Muscle uptake ([2]; 1 h p.i., i.v. ~1 nmol): 0.07 ± 0.01 % ID/g
- Pancreas uptake ([2]; 1 h p.i., i.v. ~1 nmol): 0.22 ± 0.03 % ID/g
- Prostate uptake ([2]; 1 h p.i., i.v. ~1 nmol): 0.51 ± 0.25 % ID/g
- Skin uptake ([2]; 1 h p.i., i.v. ~1 nmol): 0.44 ± 0.16 % ID/g
- Spleen uptake ([2]; 1 h p.i., i.v. ~1 nmol): 1.82 ± 0.37 % ID/g
- Stomach uptake ([2]; 1 h p.i., i.v. ~1 nmol): 0.11 ± 0.01 % ID/g
- Tumor uptake ([2]; 1 h p.i., i.v. ~1 nmol): 2.05 ± 0.52 % ID/g
- Tumor-to-muscle (T/M) ratio ([2]; 4 h p.i.): 48
- Blood uptake [2, 6]: 0.02 ± 0.00 % ID/g
- Bone uptake [2, 6]: 0.23 ± 0.13 % ID/g
- Heart uptake [2, 6]: 0.04 ± 0.01 % ID/g
- Intestines uptake [2, 6]: 0.27 ± 0.03 % ID/g
- Kidney uptake [2, 6]: 8.20 ± 0.67 % ID/g
- Liver uptake [2, 6]: 0.09 ± 0.00 % ID/g
- Lung uptake [2, 6]: 0.09 ± 0.01 % ID/g
- Muscle uptake [2, 6]: 0.03 ± 0.01 % ID/g
- Pancreas uptake [2, 6]: 0.04 ± 0.01 % ID/g
- Prostate uptake [2, 6]: 0.09 ± 0.01 % ID/g
- Skin uptake [2, 6]: 0.24 ± 0.07 % ID/g
- Spleen uptake [2, 6]: 0.09 ± 0.00 % ID/g
- Stomach uptake [2, 6]: 0.17 ± 0.13 % ID/g
- Tumor uptake [2, 6]: 0.27 ± 0.14 % ID/g
- Blood uptake ([2]; 4 h p.i., i.v. ~1 nmol): 0.02 ± 0.01 % ID/g
- Bone uptake ([2]; 4 h p.i., i.v. ~1 nmol): 0.11 ± 0.06 % ID/g
- Heart uptake ([2]; 4 h p.i., i.v. ~1 nmol): 0.04 ± 0.01 % ID/g
- Intestines uptake ([2]; 4 h p.i., i.v. ~1 nmol): 0.30 ± 0.05 % ID/g
- Kidney uptake ([2]; 4 h p.i., i.v. ~1 nmol): 13.55 ± 1.04 % ID/g
- Liver uptake ([2]; 4 h p.i., i.v. ~1 nmol): 0.10 ± 0.01 % ID/g
- Lung uptake ([2]; 4 h p.i., i.v. ~1 nmol): 0.12 ± 0.03 % ID/g
- Muscle uptake ([2]; 4 h p.i., i.v. ~1 nmol): 0.03 ± 0.02 % ID/g
- Pancreas uptake ([2]; 4 h p.i., i.v. ~1 nmol): 0.06 ± 0.03 % ID/g
- Prostate uptake ([2]; 4 h p.i., i.v. ~1 nmol): 0.18 ± 0.17 % ID/g
- Skin uptake ([2]; 4 h p.i., i.v. ~1 nmol): 0.24 ± 0.18 % ID/g
- Spleen uptake ([2]; 4 h p.i., i.v. ~1 nmol): 0.30 ± 0.09 % ID/g
- Stomach uptake ([2]; 4 h p.i., i.v. ~1 nmol): 0.09 ± 0.06 % ID/g
- Tumor uptake ([2]; 4 h p.i., i.v. ~1 nmol): 1.23 ± 0.59 % ID/g
- Tumor-to-muscle (T/M) ratio ([2]; 24 h p.i.): 14
- Bone uptake ([2]; 24 h p.i., i.v. ~1 nmol): 0.13 ± 0.04 % ID/g
- Heart uptake ([2]; 24 h p.i., i.v. ~1 nmol): 0.03 ± 0.01 % ID/g
- Intestines uptake ([2]; 24 h p.i., i.v. ~1 nmol): 0.04 ± 0.02 % ID/g
- Kidney uptake ([2]; 24 h p.i., i.v. ~1 nmol): 5.89 ± 1.49 % ID/g
- Liver uptake ([2]; 24 h p.i., i.v. ~1 nmol): 0.06 ± 0.01 % ID/g
- Lung uptake ([2]; 24 h p.i., i.v. ~1 nmol): 0.05 ± 0.01 % ID/g
- Muscle uptake ([2]; 24 h p.i., i.v. ~1 nmol): 0.03 ± 0.00 % ID/g
- Pancreas uptake ([2]; 24 h p.i., i.v. ~1 nmol): 0.03 ± 0.01 % ID/g
- Prostate uptake ([2]; 24 h p.i., i.v. ~1 nmol): 0.08 ± 0.03 % ID/g
- Skin uptake ([2]; 24 h p.i., i.v. ~1 nmol): 0.15 ± 0.01 % ID/g
- Spleen uptake ([2]; 24 h p.i., i.v. ~1 nmol): 0.09 ± 0.02 % ID/g
- Stomach uptake ([2]; 24 h p.i., i.v. ~1 nmol): 0.02 ± 0.01 % ID/g
- Tumor uptake ([2]; 24 h p.i., i.v. ~1 nmol): 0.61 ± 0.40 % ID/g
- Tumor uptake ([2]; 24 h p.i., i.v. ~1 nmol, listed as [111In]In-22): 0.41 ± 0.08 % ID/g
- Stability in PBS (%) [3]: 95.4%
- Stability in Mouse Serum (%) ([4]; 24 h post-incubation, 37 °C, indium-111 labeled, intact fraction): 95.1%
- Proteolytic degradation ([4]; mouse serum up to 24 h): No proteolytic degradation
- logD [5]: −3.26 ± 0.05
